US9187472B2 (AbbVie Inc., priority 2012, dated 2015)

Tests used:
[1] = biological target: NAMPT (human, recombinant, C-terminally His-tagged) (Homo sapiens, UniProt P43490); experiment: Time-Resolved Fluorescence Resonance Energy Transfer (TR-FRET) Binding Assay of NAMPT; details: without substrates; 6.8 nM NAMPT, 200 nM probe, 3 hours equilibration
Method: Determination of the utility of compounds having Formula (I) as binders to and inhibitors of NAMPT was performed using Time-Resolved Fluorescence Resonance Energy Transfer (TR-FRET) binding assays.
Time-Resolved Fluorescence Resonance Energy Transfer (TR-FRET) Binding Assay of NAMPT
Test compounds were serially diluted (typically 11 half log dilutions) in neat DMSO to 50× final concentrations prior to dilution with assay buffer (50 mM HEPES (NaOH), pH 7.5, 100 mM NaCl, 10 mM MgCl2, 1 mM DTT, 1% Glycerol) to 3× and 6% DMSO. Six μL were transferred to 384-well low-volume plates (Owens Corning #3673). To this, […] of a 1.5× solution containing enzyme, probe and antibody were added. Final concentrations in the 18 μL, reactions were 1× assay buffer, 2% DMSO, 6.8 nM NAMPT (human, recombinant, C-terminally His-tagged), 200 nM probe (a potent nicotinamide-competitive inhibitor conjugated to Oregon Green 488) and 1 nM Tb-anti-His antibody (Invitrogen # PV5895). Reactions were equilibrated at room temperature for 3 hours prior to reading on an Envision multi-label plate reader (Perkin Elmer; Ex=337 nm, Em=520 and 495 nm). Time-resolved FRET ratios (Em520/Em495) were normalized to controls, plotted as a function of compound concentration and fit with the four-parameter logistic equation to determine IC50s.

NAMPT = NAMPT (Homo sapiens, UniProt P43490); experiment: TR-FRET Binding Assay of NAMPT with PRPP; details: with 200 μM PRPP and 2.5 mM ATP; 2 nM NAMPT, 2 nM probe, 16 hours equilibration
Method: Time-Resolved Fluorescence Resonance Energy Transfer (TR-FRET) Binding Assay of NAMPT with PRPP
Compound handling and data processing were identical to the assay in the absence of substrates (above). Final concentrations were 1× assay buffer, 2% DMSO, 2 nM NAMPT, 2 nM probe, 1 nM Tb-anti-His antibody (Invitrogen # PV5895), 200 μM PRPP and 2.5 mM ATP. Reactions were equilibrated for 16 hours prior to measurement to allow for potential enzymatic modification of test compounds.

PC3 cells = experiment: NAMPT Cell Proliferation Assay; format: cell-based; details: Homo sapiens, PC-3, 120 h, 5 days incubation, cell viability by Cell Titer Glo
Summary of the method: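 Cell Titer Glo viability after 5-day exposure (37° C, 5% CO2); PC3, 500 cells/well, RPMI + 10% heat-inactivated FBS, overnight attachment before dosing. Dose range 10 μM to 1×10^−5 μM, 10-fold steps. IC50 = sigmoidal fit of % inhibition.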

NAMPT (human, recombinant, C-terminally His-tagged), sequence (P43490 whole entry): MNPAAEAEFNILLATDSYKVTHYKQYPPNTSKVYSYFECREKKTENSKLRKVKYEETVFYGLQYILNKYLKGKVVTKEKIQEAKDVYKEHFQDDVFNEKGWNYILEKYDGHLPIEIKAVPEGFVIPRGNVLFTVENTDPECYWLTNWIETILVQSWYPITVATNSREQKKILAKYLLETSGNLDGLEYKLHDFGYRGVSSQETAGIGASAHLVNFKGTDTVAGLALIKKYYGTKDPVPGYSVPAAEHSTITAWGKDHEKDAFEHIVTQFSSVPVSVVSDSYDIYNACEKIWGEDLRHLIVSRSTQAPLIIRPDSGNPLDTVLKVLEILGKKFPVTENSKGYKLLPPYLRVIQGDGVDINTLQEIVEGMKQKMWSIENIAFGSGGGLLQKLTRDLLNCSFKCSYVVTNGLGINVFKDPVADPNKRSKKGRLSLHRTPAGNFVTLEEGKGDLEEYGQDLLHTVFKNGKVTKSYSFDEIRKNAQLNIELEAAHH
NAMPT, sequence (P43490 whole entry): as above

| SMILES | IC50 [1] | IC50 (NAMPT) | IC50 (PC3 cells) |
| --- | --- | --- | --- |
| O=C(Nc1ccc(C(=O)NCC2CCS(=O)(=O)C2)cc1)Nc1ccc2nccn2c1 (stereo not drawn) [Example 24, N-[(1,1-dioxidotetrahydrothiophen-3-yl)methyl]-4-[(imidazo[1,2-a]pyridin-6-ylcarbamoyl)amino]benzamide] | 167 nM | 0.363 nM | 691 nM |
| CC(C)(C)CC(=O)N1CCC(c2ccc(C(=O)NCc3ccn4ccnc4c3)cc2)CC1 [Example 499, 4-[1-(3,3-dimethylbutanoyl)piperidin-4-yl]-N-(imidazo[1,2-a]pyridin-7-ylmethyl)benzamide] | 113 nM | 0.38 nM | 2.19 nM |
| O=C(NCc1ccc2nccn2c1)c1ccc(OC2CCN(C(=O)CC3CCCO3)CC2)cc1 (stereo not drawn) [Example 173, N-(imidazo[1,2-a]pyridin-6-ylmethyl)-4-{[1-(tetrahydrofuran-2-ylacetyl)piperidin-4-yl]oxy}benzamide] | 1510 nM | 1.24 nM | 50.1 nM |
| O=C(NCc1ccn2ccnc2c1)c1cnc(N2CCN(C(=O)c3ccccc3)CC2)s1 [Example 355, 2-(4-benzoylpiperazin-1-yl)-N-(imidazo[1,2-a]pyridin-7-ylmethyl)-1,3-thiazole-5-carboxamide] | 831 nM | 0.169 nM | 1940 nM |
| O=C(NCc1ccn2ccnc2c1)c1ccc(-c2cnn(CC3CCCOC3)c2)o1 (stereo not drawn) [Example 479, N-(imidazo[1,2-a]pyridin-7-ylmethyl)-5-[1-(tetrahydro-2H-pyran-3-ylmethyl)-1H-pyrazol-4-yl]furan-2-carboxamide] | 63 nM | 0.243 nM | 8.08 nM |
| O=C(NCc1ccn2ccnc2c1)Nc1ccc(C2CCN(C(=O)CC3CC3)C2)cc1 (stereo not drawn) [Example 382] | 119 nM | 0.204 nM | 83.8 nM |
| CC(C)OCC(=O)Nc1ccc(NC(=O)NCc2ccc3nccn3c2)cc1 [Example 276, N-(4-{[(imidazo[1,2-a]pyridin-6-ylmethyl)carbamoyl]amino}phenyl)-2-(propan-2-yloxy)acetamide] | 107 nM | 0.468 nM | 38.1 nM |
| CC(C)(O)C(=O)N1CCC(c2ccc(NC(=O)NCc3ccn4ccnc4c3)cc2)CC1 [Example 227, 1-{4-[1-(2-hydroxy-2-methylpropanoyl)piperidin-4-yl]phenyl}-3-(imidazo[1,2-a]pyridin-7-ylmethyl)urea] | 16.2 nM | 0.273 nM | 6.28 nM |
| Cc1noc(C)c1CC(=O)N(CC1CCCO1)c1ncc(C(=O)NCc2ccc3nccn3c2)s1 (stereo not drawn) [Example 128, 2-{[(3,5-dimethyl-1,2-oxazol-4-yl)acetyl](tetrahydrofuran-2-ylmethyl)amino}-N-(imidazo[1,2-a]pyridin-6-ylmethyl)-1,3-thiazole-5-carboxamide] | 30.7 nM | 0.873 nM | 2.21 nM |

Further lines, results first:

| IC50 [1] | IC50 (NAMPT) | IC50 (PC3 cells) | SMILES |
| --- | --- | --- | --- |
| 180 nM | 0.268 nM | 15.8 nM | O=C(NCc1ccn2ccnc2c1)c1ccc(C2CCN(C(=O)C3CCCC3)CC2)cc1 [Example 515, 4-[1-(cyclopentylcarbonyl)piperidin-4-yl]-N-(imidazo[1,2-a]pyridin-7-ylmethyl)benzamide] |
| 181 nM | 0.169 nM | 21.7 nM | Cc1ccc(C(=O)N2CCC(c3ccc(C(=O)NCc4ccn5ccnc5c4)cc3)CC2)cc1 [Example 500, N-(imidazo[1,2-a]pyridin-7-ylmethyl)-4-[1-(4-methylbenzoyl)piperidin-4-yl]benzamide] |
| 35.9 nM | 0.533 nM | 5.83 nM | O=C(NCc1ccn2ccnc2c1)c1cnc(C2CCN(C(=O)c3ccccc3F)CC2)s1 [Example 802, 2-[1-(2-fluorobenzoyl)piperidin-4-yl]-N-(imidazo[1,2-a]pyridin-7-ylmethyl)-1,3-thiazole-5-carboxamide] |
| 407 nM | 0.807 nM | 686 nM | O=C(NCc1ccn2ccnc2c1)c1ccc(C2CN(C(=O)c3cccc(OC(F)(F)F)c3)C2)cc1 [Example 669, N-(imidazo[1,2-a]pyridin-7-ylmethyl)-4-{1-[3-(trifluoromethoxy)benzoyl]azetidin-3-yl}benzamide] |
